# Assay results reported in ChEMBL document CHEMBL5331117, “X-Ray Conformation and Structure-Activity Relationships of MA026, a Reversible Tight Junction Opener” (J Med Chem, 2023).
# Test system: MDCK-II
# Assay: Induction of claudin-1 mediated tight junction opening in MDCK-II cells assessed as increase in FITC-conjugated dextran incubated for 5 hrs relative to control
# Type: cell-based
# Parameters: concentration or dose not given beside the values
# Details: Canis lupus familiaris
row,SMILES,Activity [%]
1,CCCCCCCCCC(=O)N[C@@H](CC(C)C)C(=O)N[C@H](CCC(=O)O)C(=O)N[C@H](CCC(N)=O)C(=O)N[C@H](C(=O)N[C@H](CC(C)C)C(=O)N[C@@H](CCC(N)=O)C(=O)N[C@@H]1COC(=O)[C@H]([C@@H](C)CC)NC(=O)[C@@H](CCC(N)=O)NC(=O)[C@H](CC(C)C)NC(=O)[C@H](CC(C)C)NC(=O)[C@@H](CCC(N)=O)NC(=O)[C@@H](CC(C)C)NC(=O)[C@@H](C(C)C)NC1=O)C(C)C,8.6
2,CCCCCCCCCC(=O)N[C@@H](CC(C)C)C(=O)N[C@H](CCC(=O)O)C(=O)N[C@H](CCC(N)=O)C(=O)N[C@@H](C(=O)N[C@H](CC(C)C)C(=O)N[C@H](CCC(N)=O)C(=O)N[C@@H]1COC(=O)[C@H]([C@@H](C)CC)NC(=O)[C@@H](CCC(N)=O)NC(=O)[C@H](CC(C)C)NC(=O)[C@H](CC(C)C)NC(=O)[C@@H](CCC(N)=O)NC(=O)[C@@H](CC(C)C)NC(=O)[C@@H](C(C)C)NC1=O)C(C)C,0.8
3,CCCCCCCCCC(=O)N[C@@H](CC(C)C)C(=O)N[C@H](CCC(=O)O)C(=O)N[C@@H](CCC(N)=O)C(=O)N[C@@H](C(=O)N[C@H](CC(C)C)C(=O)N[C@@H](CCC(N)=O)C(=O)N[C@@H]1COC(=O)[C@H]([C@@H](C)CC)NC(=O)[C@@H](CCC(N)=O)NC(=O)[C@H](CC(C)C)NC(=O)[C@H](CC(C)C)NC(=O)[C@@H](CCC(N)=O)NC(=O)[C@@H](CC(C)C)NC(=O)[C@@H](C(C)C)NC1=O)C(C)C,17.6
4,CCCC(=O)N[C@@H](CC(C)C)C(=O)N[C@H](CCC(=O)O)C(=O)N[C@H](CCC(N)=O)C(=O)N[C@@H](C(=O)N[C@H](CC(C)C)C(=O)N[C@@H](CCC(N)=O)C(=O)N[C@@H]1COC(=O)[C@H]([C@@H](C)CC)NC(=O)[C@@H](CCC(N)=O)NC(=O)[C@H](CC(C)C)NC(=O)[C@H](CC(C)C)NC(=O)[C@@H](CCC(N)=O)NC(=O)[C@@H](CC(C)C)NC(=O)[C@@H](C(C)C)NC1=O)C(C)C,-1
5,CC[C@H](C)[C@@H]1NC(=O)[C@@H](CCC(N)=O)NC(=O)[C@H](CC(C)C)NC(=O)[C@H](CC(C)C)NC(=O)[C@@H](CCC(N)=O)NC(=O)[C@@H](CC(C)C)NC(=O)[C@@H](C(C)C)NC(=O)[C@H](NC(=O)[C@H](CCC(N)=O)NC(=O)[C@@H](CC(C)C)NC(=O)[C@H](NC(=O)[C@@H](CCC(N)=O)NC(=O)[C@@H](CCC(=O)O)NC(=O)[C@H](CC(C)C)NC(C)=O)C(C)C)COC1=O,-2.8
6,CCCCCCC[C@@H](O)CC(=O)N[C@@H](CC(C)C)C(=O)N[C@H](CCC(=O)O)C(=O)N[C@H](CCC(N)=O)C(=O)N[C@@H](C(=O)N[C@H](CC(C)C)C(=O)N[C@@H](CCC(N)=O)C(=O)N[C@@H]1COC(=O)[C@H]([C@@H](C)CC)NC(=O)[C@@H](CCC(N)=O)NC(=O)[C@H](CC(C)C)NC(=O)[C@H](CC(C)C)NC(=O)[C@@H](CCC(N)=O)NC(=O)[C@@H](C)NC(=O)[C@@H](C(C)C)NC1=O)C(C)C,10.9

# Same assay, conditions: Canis lupus familiaris, filed as opener
row,SMILES,Activity [%]
1,CCCCCCC[C@@H](O)CC(=O)N[C@@H](CC(C)C)C(=O)N[C@H](CCC(=O)O)C(=O)N[C@H](CCC(N)=O)C(=O)N[C@@H](C(=O)N[C@H](CC(C)C)C(=O)N[C@@H](CCC(N)=O)C(=O)N[C@@H]1COC(=O)[C@H]([C@@H](C)CC)NC(=O)[C@@H](C)NC(=O)[C@H](CC(C)C)NC(=O)[C@H](CC(C)C)NC(=O)[C@@H](CCC(N)=O)NC(=O)[C@@H](CC(C)C)NC(=O)[C@@H](C(C)C)NC1=O)C(C)C,122
2,CCCCCCCCCC(=O)N[C@@H](CC(C)C)C(=O)N[C@@H](CCC(=O)O)C(=O)N[C@H](CCC(N)=O)C(=O)N[C@@H](C(=O)N[C@H](CC(C)C)C(=O)N[C@@H](CCC(N)=O)C(=O)N[C@@H]1COC(=O)[C@H]([C@@H](C)CC)NC(=O)[C@@H](CCC(N)=O)NC(=O)[C@H](CC(C)C)NC(=O)[C@H](CC(C)C)NC(=O)[C@@H](CCC(N)=O)NC(=O)[C@@H](CC(C)C)NC(=O)[C@@H](C(C)C)NC1=O)C(C)C,85.4
